According to patent US6140336A, “Spiro[2H-1-benzopyran-2,4'-piperidine]-4(3H)-one derivatives, acid addition salts thereof and pharmaceutical compositions containing them” (Richter Gedeon Vegyeszeti Gyar Rt., priority 1996, dated 2000):
Structures can show the parent of a compound that is named as a salt. Where two headings read alike, the source gives them in different places.

Assays:
[1] = assay type: in vivo, rats; conditions: for ED50: i.v.
Description: These experiments were carried out on rats (with a body weight of 180-200 g) anaesthetized by urethane (1.25 g/kg i.p.) in such a way that 50 μg/kg of aconitine [chemically acetyl benzoyl aconine] was injected to the tail vein then, the arrhythmic disturbances were observed on ERG II lead after 5 minutes [J. Med. Exp. 10, 93 (1964)].
The compounds to be tested for antiarrhythmic effect were intravenously (i.v.) administered 2 minutes, or orally one hour before aconitine.
The aconitine arrhythmia was evaluated in such a manner that the severity of arrhythmia was characterized by an increasing number and, after average calculation both in the control as well as in the tested group, the average of treated group was expressed as percentage of the control. The arrhythmia was characterized by the following scores: […]

[2] = Electroshock (ECS) induced retrograde amnesia, passive avoidance test; assay type: in vivo, NMRI mice; conditions: for Prevention %: 2 hours after learning
Description: (§1) The biological activity of the compounds of formulas (I) and (Ia) was studied by using passive avoidance test. This test is one of the most widely used animal experimental model for investigating the effects of substances on the cognitive functions (learning and memory processes). This is based on inhibition of the genetically determined behavior of rodents (mice and rats) that they prefer dark space to light one. A single electric shock given in the dark box is employed as a memory trace, the retention and retrieval of which can be controlled after a shorter or longer period.
In this test, the retrograde amnesia was induced on NMRI mice having a body weight of 24-26 g by using an auricular electroshock treatment of 20 mA for 0.2 s at one hour following the learning. The compounds to be tested were administered 2 hours after learning. The protective effect was calculated as percentage value (p%D) by using the following formula: [formula]
P%=Ttreated+ECS -Tplacebo+ECS /Tplacebo -Tplacebo+ECS
(§2) In the above formula, T means the measured retention time of animals treated as shown in the index or the measured retention time of untreated animals, respectively.

[3] = Diazepam (DIA) induced anterograde amnesia, passive avoidance test; assay type: in vivo, NMRI mice; conditions: for inhibition in vivo at 0.1 mg/kg / inhibition in vivo at 10 mg/kg: Mus musculus, po, 1 h, read-out: Prevention %; for significantly antagonized the amnesic effect of diazepam (percentage): Table 1, p.o.; for antiamnesic effect (overall): overall conclusion from the amnesia tests; for protection against the amnesic effect of diazepam, lower versus higher dose: 0.1 mg/kg and 10 mg/kg p.o.
Description: as §1
The passive avoidance test was carried out on NMRI mice with a body weight of 25-28 g. During the learning, preselected animals (mice entering into a dark space from an illuminated space within 30 s) were placed into an illuminated space. After entering into the dark space, the animal received within 30 s onto his paw an electric shock (1 mA for 3 s) causing an unpleasant sensation. The time of entry into the dark space (latency period) was measured. During the check, after 24 hours, the animals were again put back to the illuminated space and the time elapsed until entry into the dark space (retention time) was measured (limit time=300 s). The animals were intraperitoneally (i.p.) treated with 3 mg/kg of diazepam (chemically, 7-chloro-1,3-dihydro-1-methyl-5-phenyl-2H-1,4-benzodiazepin-2-one) 30 minutes before learning in order to induce anterograde amnesia. The compounds were orally (p.o.) administered in doses of 0.1 or 10 mg/kg, respectively one hour before the learning. The protective effect was calculated percentage value (P%) by using the following formula: [formula]
as §2

[4] = Normobaric hypoxia-induced memory deficiency model on rats; assay type: in vivo; conditions: 10 mg/kg oral
Description: (§3) Compound 4610351 has been investigated in detail both under in vitro and in vivo conditions. This compound evened 36% protection in an oral dose of 10 mg/kg in the normobaric hypoxia-induced memory deficiency model on rats; this surpassed the protective effect of 21% provided by 10 mg/kg oral dose of vinpocetine. […] On the basis of these investigations, compounds of formulas (I) and (Ia) can be utilized for the treatment of diseases and dementias accompanied by the impairment of cognitive processes (learning, memory), such as multiinfarct and Alzeimer type dementias, states following stroke, ischaemic injuries, sequels of trauma of the central nervous system, parkinsonism, Huntington's chorea or multiple sclerosis. The therapeutical doses of compounds of formulas (I) and (Ia) can range between 0.1 and 40 mg/kg of body weight given orally, daily once or several times.

[5] = Stability of hydrogen maleate salt versus free base; assay type: physicochemical
[6] = test system: neuronal calcium uptake (K^+ -induced); experiment: K+ -induced 45Ca uptake by synaptosome preparation; assay type: biochemical
Description: as §3

[7] = test system: neuronal calcium uptake (veratrine-induced); experiment: Veratrine-induced 45Ca uptake by synaptosome preparation; assay type: biochemical
Description: as §3

[8] = 0.1 mg/kg p.o., one hour before learning, diazepam 3 mg/kg i.p., * = p < 0.05 vs diazepam control
[9] = 10 mg/kg p.o., one hour before learning, diazepam 3 mg/kg i.p., * = p < 0.05 vs diazepam control
[10] = 10 mg/kg p.o., * marks significance
[11] = 30 mg/kg p.o., one hour before aconitine

CCCCc1oc2ccccc2c1C(=O)c1cc(I)c(OCCN(CC)CC)c(I)c1 [Amiodarone]
Inhibition (%) ([1]; 3.0 mg/kg i.v.): 13%
Inhibition (%) ([1]; 5.0 mg/kg i.v.): 29%
Inhibition (%) ([1]; 10 mg/kg i.v.): 70%
ED50 [1]: 7.04 mg/kg

NC(=O)[C@@H]1CCCN1C(=O)[C@H](Cc1c[nH]cn1)NC(=O)[C@@H]1CCC(=O)N1 [TRH, 5-oxo-L-prolyl-L-histidyl-L-proline amide, reference compound]
Prevention % ([2]; 1 mg/kg i.p.): 77%
Prevention % ([2]; 10 mg/kg i.p.): 35%

CCN1C[C@H]2CN(C)C[C@@H](C1)C2OC(=O)c1ccc(Cl)cc1 (stereo partly drawn) [Bisaramil, 3-methyl-7-ethyl-9α-(4-chlorobenzoyloxy)-3,7-diazabicyclo[3.3.1]nonane hydrochloride]
Inhibition (%) ([1]; 0.3 mg/kg i.v.): 20%
Inhibition (%) ([1]; 0.5 mg/kg i.v.): 48%
Inhibition (%) ([1]; 1.0 mg/kg i.v.): 91%
ED50 [1]: 0.49 mg/kg

O=C1CC2(CCN(Cc3ccc([N+](=O)[O-])cc3)CC2)Oc2ccccc21 [Compound 4610350]
antiamnesic action in lower doses ([3]; 0.1 mg/kg p.o.): showed an antiamnesic action
antiamnesic action in higher doses ([3]; 10 mg/kg p.o.): inactive
inhibition in vivo at 0.1 mg/kg [3, 8]: 170%
inhibition in vivo at 10 mg/kg [3, 9]: 29%
significantly antagonized the amnesic effect of diazepam (percentage) [3]: 105-176%
antiamnesic effect (overall) [3]: significant antiamnesic effect
Prevention % ([2]; 1 mg/kg p.o.): 0%
Prevention % [2, 10]: 8%

O=C1CC2(CCN(Cc3ccccc3)CC2)Oc2ccccc21 [Compound 4600592, 1'-Benzylspiro[2H-1-benzopyran-2,4'-piperidine]-4(3H)-one]
inhibition in vivo at 0.1 mg/kg [3, 8]: 144%
inhibition in vivo at 10 mg/kg [3, 9]: 92%
significantly antagonized the amnesic effect of diazepam (percentage) [3]: 105-176%
Prevention % ([2]; 1 mg/kg p.o.): 48%
Prevention % [2, 10]: 44%
protection in ECS-induced retrograde amnesia ([2]; mouse, in vivo): No considerable protection
Inhibition (%) ([1]; 10 mg/kg i.v.): 3%
Inhibition (%) ([1]; 30 mg/kg i.v.): 19%
Inhibition (%) [1, 11]: 0%

O=C1CC2(CCN(Cc3ccc(F)cc3)CC2)Oc2ccccc21 [Compound 4610282]
inhibition in vivo at 0.1 mg/kg [3, 8]: 131%
inhibition in vivo at 10 mg/kg [3, 9]: 24%
significantly antagonized the amnesic effect of diazepam (percentage) [3]: 105-176%
antiamnesic effect (overall) [3]: significant antiamnesic effect
protection in ECS-induced retrograde amnesia ([2]; 0.1 mg/kg (as printed in text)): 77%
Prevention % ([2]; 1 mg/kg p.o.): 77%
Prevention % [2, 10]: 29%

CCOC(=O)C1=C[C@]2(CC)CCCN3CCc4c(n1c1ccccc41)[C@@H]32 [Vinpocetine, ethyl apovincaminate, reference compound]
inhibition in vivo at 0.1 mg/kg [3, 8]: 0%
inhibition in vivo at 10 mg/kg [3, 9]: 123%
protection, normobaric hypoxia-induced memory deficiency [4]: 21%

C=C[C@H]1C[N@@]2CC[C@H]1C[C@@H]2[C@@H](O)c1ccnc2ccc(OC)cc12 [Quinidine, (S)-(6-methoxy-4-quinolinyl)-[(2R.4S.5R)-5-vinyl-2-quinuclidinyl]methanol]
Inhibition (%) ([1]; 0.3 mg/kg i.v.): 34%
Inhibition (%) ([1]; 10 mg/kg i.v.): 55%
Inhibition (%) ([1]; 30 mg/kg i.v.): 83%
ED50 [1]: 6.66 mg/kg

Cc1cccc(C)c1OCC(C)N (stereo not shown) [Mexiletine, 1-methyl-2-(2,6-xylyloxy)ethylamine]
Inhibition (%) ([1]; 1.0 mg/kg i.v.): 29%
Inhibition (%) ([1]; 3.0 mg/kg i.v.): 68%
Inhibition (%) ([1]; 10 mg/kg i.v.): 62%
ED50 [1]: 2.51 mg/kg

O=C1CC2(CCN(Cc3ccccc3)CC2)Oc2ccccc21
stability over the free base form [5]: higher stability

O=C1CC2(CC[N+](Cc3ccc([N+](=O)[O-])cc3)(Cc3ccc([N+](=O)[O-])cc3)CC2)Oc2ccccc21 [Compound 4611265]
protection against the amnesic effect of diazepam, lower versus higher dose [3]: nearly the same protection
inhibition in vivo at 0.1 mg/kg [3]: 86%
inhibition in vivo at 10 mg/kg [3]: 134%
significantly antagonized the amnesic effect of diazepam (percentage) [3]: 105-176%
antiamnesic effect (overall) [3]: significant antiamnesic effect
Inhibition (%) ([1]; 10 mg/kg i.v.): 21%
Inhibition (%) ([1]; 30 mg/kg i.v.): 10%
Inhibition (%) [1, 11]: 0%

O=C1CC2(CCN(Cc3ccc(Br)cc3)CC2)Oc2ccccc21 [Compound 4611109]
antiamnesic action in lower doses ([3]; 0.1 mg/kg p.o.): showed an antiamnesic action
antiamnesic action in higher doses ([3]; 10 mg/kg p.o.): inactive
inhibition in vivo at 0.1 mg/kg [3, 8]: 92%
inhibition in vivo at 10 mg/kg [3, 9]: 0%

CC(C)(C)c1ccc(CN2CCC3(CC2)CC(=O)c2ccccc2O3)cc1 [Compound 4611266, 1'-(4-tert-butylbenzyl)-spiro[2H-1-benzopyran-2,4'-piperidine]-4(3H)-one]
protection against the amnesic effect of diazepam, lower versus higher dose [3]: nearly the same protection
inhibition in vivo at 0.1 mg/kg [3, 8]: 159%
inhibition in vivo at 10 mg/kg [3, 9]: 105%
significantly antagonized the amnesic effect of diazepam (percentage) [3]: 105-176%
antiamnesic effect (overall) [3]: significant antiamnesic effect
Inhibition (%) ([1]; 10 mg/kg i.v.): 21%
Inhibition (%) ([1]; 30 mg/kg i.v.): 3%
Inhibition (%) [1, 11]: 0%

O=C1CC2(CCN(Cc3ccc(Cl)cc3)CC2)Oc2ccccc21 [Compound 4610351]
inhibition in vivo at 0.1 mg/kg [3, 8]: 78%
inhibition in vivo at 10 mg/kg [3, 9]: 176%
significantly antagonized the amnesic effect of diazepam (percentage) [3]: 105-176%
antiamnesic effect (overall) [3]: significant antiamnesic effect
Prevention % ([2]; 1 mg/kg p.o.): 81%
Prevention % [2, 10]: 108%
reversal of ECS-caused amnesia ([2]; both doses): could significantly reverse the ECS-caused amnesia in both doses
reversal of ECS-caused amnesia ([2]; higher dose): 108%
protection, normobaric hypoxia-induced memory deficiency [4]: 36%
IC50 [6]: 45.6 µM
IC50 [7]: 4.5 µM
Inhibition (%) ([1]; 10 mg/kg i.v.): 16%
Inhibition (%) ([1]; 30 mg/kg i.v.): 16%
Inhibition (%) [1, 11]: 5%

O=C1CC2(CC[N+](Cc3ccccc3)(Cc3ccccc3)CC2)Oc2ccccc21 [Compound 4611267, 1',1'-dibenzyl-spiro[2H-4(3H)-oxo-1-benzopyran-2,4'-piperidinium]hydrochloride]
inhibition in vivo at 0.1 mg/kg [3, 8]: 47%
inhibition in vivo at 10 mg/kg [3, 9]: 67%
Inhibition (%) ([1]; 10 mg/kg i.v.): 0%
Inhibition (%) ([1]; 30 mg/kg i.v.): 29%
Inhibition (%) [1, 11]: 0%
